Measured values from patent publication US20240139149A1, “THERAPEUTIC USES OF UROLITHIN DERIVATIVES” (Vandria SA, priority 2022, published 2024).

Tests used:
Type in all cases: cell-based
[1] = test system: mouse T lymphocytes; assay: Mitochondrial content (Mitotracker positive cells) in mouse T lymphocytes; conditions: 2 μM, 72 h
Protocol: Splenic murine T cells were isolated from mice aged 6-20 weeks by negative selection with EasySep mouse T cell isolation kit (Stem cell) according to the manufacturer's instructions. T cell activation was initiated using CD3/CD28 activation beads (11456D; ThermoFisher Scientific) at a ratio of 25 μl dynabeads per 0.5×10^6 T-cells. Cells were activated with test compounds at 2 μM or DMSO in T cell activation Medium (RPMI (ThermoFisher Scientific) 10% FBS (South America origin), 10 mM Hepes (Sigma), 1× Non-Essential Amino Acid, 1 mM Sodium Pyruvate, 50 μM β-Mercaptoethanol, 100 U/ml penicillin, 100 μg/ml streptomycin and 2 mM Glutamax (ThermoFisher Scientific) for 72 h. For subsequent analysis, activating beads were magnetically removed prior staining.
For flow cytometric analysis of mitochondria 500 μl of Mitotracker Red (200 nM; ThermoFisher) was applied followed by surface staining.
Cell doublets and cells debris were excluded from the analysis by gating FSC-A vs FSC-H followed by SSC-A vs SSC-H dot plots and FSC-A vs SSC-A dot plots, respectively. eFluor 780 highly positive cells, i.e, dead cells, were gated out of the analysis. Data was acquired on Canto II (BD), Fortessa (BD) and Aurora (Cytek) cytometers and analyzed with FlowJo.

[2] = test system: cortical neurons and microglial cells injured with Aβ1-42; assay: Rat primary culture of cortical neurons and microglial cells injured with Aβ1-42
Protocol: Pregnant female rat (Wistar) of 15 days of gestation were killed using a deep anesthesia with CO2 chamber and a cervical dislocation. Fetuses were collected and immediately placed in ice-cold L15 Leibovitz medium with a 2% penicillin (10,000 U/mL) and streptomycin (10 mg/mL) solution (PS) and 1% bovine serum albumin (BSA). Cortex were specifically dissected and then were treated for 20 min at 37° C. with a trypsin-EDTA solution at a final concentration of 0.05% trypsin and 0.02% EDTA. The dissociation was stopped by addition of Dulbecco's modified Eagle's medium (DMEM) with 4.5 g/L of glucose, containing DNAse I grade II (final concentration 0.5 mg/mL) and 10% fetal calf serum (FCS). Cells were mechanically dissociated by three forced passages through the tip of a 10-mL pipette. Cells were then centrifuged at 515×g for 10 min at 4° C. The supernatant was discarded, and the pellet was resuspended in a defined culture medium consisting of Neurobasal medium with a 2% solution of B27 supplement, 2 mmol/liter of L-glutamine, 2% of PS solution, 10 ng/mL of brain-derived neurotrophic factor (BDNF), 2% of heat-inactivated horse serum, 2% of heat-inactivated FCS, 1 g/L of glucose, 1 mM of sodium pyruvate, and 100 μM of non-essential amino acids. The presence of serum in the medium allows the growth of the microglial cells. Viable cells were counted in a Neubauer cytometer, using the trypan blue exclusion test.
The cells were seeded at a density of 45 000 per well in 96-well plate precoated with poly-L-lysine and were cultured at 37° C. in an air (95%)—CO2 (5%) incubator. The medium was changed every 2 days.
On day 11 of culture, the compounds were dissolved in the appropriate vehicle and pre-incubated with the primary cortical neurons for one hour (1 h), before Aβ1-42 exposure.
On day 11 of culture, the cortical neurons were injured with the AP 1-42 peptide. AP 1-42 peptide was dissolved in the defined culture medium mentioned above, at an initial concentration of 20 μM. The solution was gently agitated for 3 days at 37° C. in the dark and immediately used after being properly diluted in culture medium to the concentration used (5 μM, 0.5 μM oligomers precisely evaluated by automatic WB). The AP 1-42 solution was applied on the culture at […] (0.5 μM oligomers, AβO), in presence of the compound, for 72 hours.
72 hours after the application of Aβ, the cell culture supernatant was removed. Cells were then washed with phosphate-buffered saline (PBS) and fixed with a cold solution of ethanol (95%) and acetic acid (5%) for 5 min at −20° C. After two washing steps with cold PBS, cells permeabilized and unspecific binding sites were blocked with a solution of PBS containing 0.1% of saponin and 1% of FCS, for 15 min at RT. Cells were incubated for 2 hours with: • a) Monoclonal anti-MAP2 antibody produced in mouse at dilution of 1/400 in PBS containing 1% FCS, 0.1% saponin, for 2 hours at room temperature. • b) Rabbit polyclonal antibody anti-SIRP alpha/CD172a (OX-41) at dilution of 1/400 in PBS containing 1% fetal calf serum and 0.1% of saponin (this antibody stains specifically the microglia and will allow to evaluate the activation of the microglial cells).
For each condition, 30 pictures (representative of the whole well area) were automatically taken using ImageXpress® (Molecular Devices) at 20× magnification using the same acquisition parameters. From images, the analyses were automatically performed by MetaXpress® (Molecular Devices). The following read-outs were measured: • Total neuron survival (number of MAP-2(+) neurons), • Total length of neurite network of MAP-2(+) neurons (in μm) • Total area of activated microglia (area of OX-41 signal, in μm^2)
All values are expressed as mean+/−SEM (standard error of the mean). Statistical analysis was performed by one-way ANOVA followed by Fisher's LSD test, with GraphPad Prism. p<0.05 was considered significant.

[3] = test system: splenic murine T cells; assay: Murine T cells stimulated with αCD3/αCD28 in presence of UA; conditions: ICG001 10 μM plus UA 50 μM, 48 h
Protocol: Splenic murine T cells were isolated from mice aged 6-20 weeks by negative selection with EasySep mouse T cell isolation kit (Stem cell) according to the manufacturer's instructions. To monitor T cell proliferation, purified T cells were loaded with CellTrace Violet (C34557 ThermoFisher Scientific). T cell activation was initiated using αCD3/CD28 activation beads (11456D; ThermoFisher Scientific) at a ratio of 25 μl dynabeads per 0.5×106 T-cells. Cells were activated with 25-50 μM Urolithin A (Tocris) or DMSO in T cell activation Medium (RPMI (ThermoFisher Scientific) 10% FBS (South America origin), 10 mM Hepes (Sigma), 1×Non-Essential Amino Acid, 1 mM Sodium Pyruvate, 50 µM β-Mercaptoethanol, 100 U/mL penicillin, 100 μg/mL streptomycin and 2 mM Glutamax (ThermoFisher Scientific) for the indicated durations. In selected experiments, cells were stimulated in the presence of inhibitors, namely TCFli (ICG-001; SelleckChem; […]) and PGC-lai (SR-18292, Sigma-Aldrich; […]). For subsequent analysis, activating beads were magnetically removed prior antibody staining. For human T cells, peripheral blood mononuclear cells were purified with a Ficoll-Paque (GE healthcare) gradient. T cells were enriched with EasySep Human T Cell Isolation Kit (StemCell) and activated with dynabead Human T-Activator CD3/CD28 for T Cell Expansion and Activation Kit (11131D; ThermoFisher Scientific), similar to murine T cell stimulation. When the subsequent activation and expansion of CAR T cells was studied, plates were coated with 1 μg/mL anti-human CD3 (αCD3; clone OKT3) and thawed PBMC were cultivated with […] anti-human CD28 (αCD28; 15E8, both Miltenyi Biotec) containing media for three days. (NutriT media (4Cell® Nutri-T media (Sartorius) containing 0.5% penicillin/streptomycin) supplemented with IL-7 (25 U/mL) and IL-15 […] (all Miltenyi Biotec)).
Tumors were minced and digested with Tumor & Tissue Dissociation Reagent (BD Horizon) for 30 min. The remaining organ pieces were filtered through a 70 µm cell strainer. Cells were then washed with PBS 1% BSA and 2 mM EDTA. Immune cells were enriched on a 30%/40%/75% Percoll gradient after a 1700 rpm 17 min centrifugation. Then, tumor immune filtrates or activated T cells were stained with Fixable Viability Dye-eF780 (65-0865-14; eBioscience), αCD45-FITC (30-F11; 11-0451-85; eBioscience), αCD11b-BV650 (M1/70; 56340; BD) α-CD11c-BV785 (HL3; 563735; BD), aLy6G-BV605 (53-6.7; 563005; BD), aLy6C-AF700 (HK1.4; 128024; Biolegend), aF4/80-PE (BM8; 12-4801-82, eBioscience), aPD-L1-PECy7 (MIH5; 25-5982-80, eBioscience); or with Fixable Viability Dye-eF780 (ebioscience), αCD45-BV786 (30-F11; 564225; BD), αCD4-BUV496 (GK1.5; 564667; BD), αCD8-BV605 (100744; Biolegend), aPD1-APC (J43; 17-9985-82; eBioscience), aTIM-3-PECy7 (RMT3-23; 119715; Biolegend), aCTLA4-PE (UC10-4B9; 106305; Biolegend) and aLag3-BV421 (C9B7W; 125221, Biolegend); or with Fixable Viability Dye-eF780 (eBioscience), αCD4-FITC (H129.19; 553650; BD), αCD8-APC (53-6.7; 17-0081-83; eBioscience), αCD44-AF400 (IM7; 103026; Biolegend), αCD62L-BV785 (MEL-14; 104440; Biolegend), αSca-1-PerCP-Cy5.5 (D7; 45-5981-82; eBioscience), αCD95-PE (Jo2; 554258; BD); or with Fixable Viability Dye-eF780 (eBioscience), αCD8-BV650 (53-6.7; 563234; BD), αCD4-BUV496 (GK1.5; 564667; BD), αCD127-APC (A7R34; 17-1271-82; eBioscience), αCD95-FITC (SA367H8;152605; Biolegend), αCD44-AF400 (IM7; 103026; Biolegend), αCD62L-BV785 (MEL-14; 104440; Biolegend), αSca-1-PerCP-Cy5.5 (D7; 45-5981-82; eBioscience) followed by intracellular staining of aTCF1-PE (S33-966; 564217; BD), or PGC-1α (sc-518025; D-5; santa cruz), or aCyclinD1 (MA5-28534, DCS-6; Invitrogen) with transcription factor buffer set kit (BD Biosciences). To study cytokine expression, tumor immune infiltrates were stimulated ex vivo with 20 ng/mL PMA and […] Ionomycin (Sigma) for 3 h in T cell activation medium with Brefeldin A (Biolegend). […]

[4] = 125 and 250 nM, Aβ1-42 72 hours

Row | SMILES | increase in the percentage of Mitotracker positive cells vs DMSO [1] [%] | percentage of Mitotracker positive cells ([1]; DMSO 44%) [%] | microglial activation (conclusion) [2] | neuroprotection in the inflammatory in vitro model (conclusion) [2] | microglial activation (OX-41) [2, 4] | neurite network of cortical neurons (MAP-2) [2, 4] | survival of cortical neurons (MAP-2) [2, 4] | UA-induced TSCM formation in presence of TCF-1 inhibitor [3]
1 | Cc1cc2c(cc1O)OC(C)(C)c1cc(O)c(C)cc1-2 [117A, 2,6,6,9-tetramethyl-6H-benzo[c]chromene-3,8-diol] | 30 | 57.3 | significantly reduce | neuroprotective | decrease | significantly protect | significantly protect | –
2 | O=C1[C@H](Cc2ccc(O)cc2)N2C(=O)CCN(C(=O)NCc3ccccc3)[C@H]2CN1Cc1cccc2ccccc12 [ICG001] | – | – | – | – | – | – | – | abrogated
